Laboratory results taken from publication PMC9865890, “N-Derivatives of (Z)-Methyl 3-(4-Oxo-2-thioxothiazolidin-5-ylidene)methyl)-1H-indole-2-carboxylates as Antimicrobial Agents—In Silico and In Vitro Evaluation” (Pharmaceuticals, 2023).
Values after ≈ are worked out from the molar mass of the structure shown. Where two headings read alike, the source gives them in different places.

Key:
[1] = system: Bacillus cereus (clinical isolate); experiment: Antibacterial microdilution (MIC/MBC); type: cell-based; details: Bacillus cereus, B.c. (B. cereus); for MIC: read-out: MIC
Protocol: (§1) The synthesized compounds (Table 1) were evaluated for their antibacterial activity against a panel of eight species using a microdilution method with ampicillin and streptomycin as reference drugs. […] The order of activity can be presented as: 8 > 11 > 2 > 1 > 12 > 3 > 17 > 7 > 5 > 13 > 14 > 16 > 9 > 4 = 6 > 15 > 10. […] Cloacae. […] The most sensitive bacteria appeared to be En. cloacae, while E. coli was the most resistant one, followed by M. flavus.
(§2) The following Gram-negative bacteria: Escherichia coli (ATCC 35210), Enterobacter cloacae (clinical isolate), Salmonella typhimurium (ATCC 13311), as well as Gram-positive bacteria: Listeria monocytogenes (NCTC 7973), Bacillus cereus (clinical isolate), and Staphylococcus aureus (ATCC 6538) were used. The organisms were obtained from the Mycological Laboratory, Department of Plant Physiology, Institute for Biological Research “Siniša Stankovic”, Belgrade, Serbia. The minimum inhibitory (MIC) and minimum bactericidal (MBC) concentrations were determined by the modified microdilution method, as previously reported.

[2] = system: Enterobacter cloacae (clinical isolate); experiment: Antibacterial microdilution (MIC/MBC); type: cell-based; details: Enterobacter cloacae, En.cl (En. cloacae); for MIC: read-out: MIC
Protocol: as §1, §2

[3] = system: Escherichia coli (ATCC 35210); experiment: Antibacterial microdilution (MIC/MBC); type: cell-based; details: Escherichia coli, ATCC35210, E. coli; for MIC: read-out: MIC
Protocol: as §1, §2

[4] = system: Listeria monocytogenes (NCTC 7973); experiment: Antibacterial microdilution (MIC/MBC); type: cell-based; details: L.m. (L. monocytogenes)
Protocol: as §1, §2

[5] = system: M. flavus; experiment: Antibacterial microdilution (MIC/MBC); type: cell-based; details: Micrococcus flavus; M.f. (M. flavus)
Protocol: as §1, §2

[6] = system: P. aeruginosa; experiment: Antibacterial microdilution (MIC/MBC); type: cell-based; details: Pseudomonas aeruginosa, P.a. (P. aeruginosa); for MIC: read-out: MIC
Protocol: as §1, §2

[7] = system: Salmonella typhimurium (ATCC 13311); experiment: Antibacterial microdilution (MIC/MBC); type: cell-based; details: Salmonella enterica, S.t. (S. typhimurium); for MIC: read-out: MIC
Protocol: as §1, §2

[8] = system: Staphylococcus aureus (ATCC 6538); experiment: Antibacterial microdilution (MIC/MBC); type: cell-based; details: Staphylococcus aureus, ATCC6538, S.a. (S. aureus); for MIC: read-out: MIC
Protocol: as §1, §2

[9] = system: A. ochraceus; experiment: Antifungal bioassay (MIC/MFC); type: cell-based; details: A.o. (A. ochraceus)
Protocol: (§3) For the antifungal bioassays, six fungi were used: […] The organisms were obtained from the Mycological Laboratory, Department of Plant Physiology, Institute for Biological Research “Siniša Stankovic”, Belgrade, Serbia. All experiments were performed in duplicate.

[10] = system: Aspergillus fumigatus (ATCC 1022); experiment: Antifungal bioassay (MIC/MFC); type: cell-based; details: ATCC1022, A.f. (A. fumigatus)
Protocol: as §3

[11] = system: Aspergillus niger (ATCC 6275); experiment: Antifungal bioassay (MIC/MFC); type: cell-based; details: ATCC6275, A.n. (A. niger)
Protocol: as §3

[12] = system: Aspergillus versicolor (ATCC 11730); experiment: Antifungal bioassay (MIC/MFC); type: cell-based; details: ATCC11730, A.v. (A. versicolor)
Protocol: as §3

[13] = system: P. ochrochloron; experiment: Antifungal bioassay (MIC/MFC); type: cell-based; details: for MIC: P.o. (P. ochrochloron; text: P. ochramensis); for MFC: P.o. (P. ochrochloron)
Protocol: as §3

[14] = system: Penicillium funiculosum (ATCC 36839); experiment: Antifungal bioassay (MIC/MFC); type: cell-based; details: Talaromyces funiculosus, ATCC36839; P.f. (P. funiculosum)
Protocol: as §3

[15] = system: Trichoderma viride (IAM 5061); experiment: Antifungal bioassay (MIC/MFC); type: cell-based; details: T.v. (T. viride)
Protocol: as §3

[16] = system: Penicillium verrucosum var. cyclopium (food isolate); experiment: Antifungal bioassay (MIC/MFC); type: cell-based
Protocol: For the antifungal bioassays, six fungi were used: Aspergillus niger (ATCC 6275), Aspergillus fumigatus (ATCC 1022), Aspergillus versicolor (ATCC 11730), Penicillium funiculosum (ATCC 36839), Trichoderma viride (IAM 5061), and Penicillium verrucosum var. cyclopium (food isolate). The organisms were obtained from the Mycological Laboratory, Department of Plant Physiology, Institute for Biological Research “Siniša Stankovic”, Belgrade, Serbia. All experiments were performed in duplicate.

[17] = Listeria monocytogenes, NCTC7973
[18] = Listeria monocytogenes, NCTC7973, read-out: MIC
[19] = Aspergillus ochraceus, read-out: MIC
[20] = Penicillium ochrochloron, read-out: MIC
[21] = Trichoderma viride, IAM5061, read-out: MIC

Row | SMILES | MBC [1] | MIC [1] | MBC [2] | MIC [2] | MBC [3] | MBC [4, 17] | MIC [4, 18] | MBC [5] | MIC [5] | MBC [6] | MIC [6] | MBC [7] | MBC [8] | MIC [8] | MFC ([9]; Aspergillus ochraceus) | MIC [9, 19] | MFC [10] | MIC [10] | MFC [11] | MIC [11] | other results
1 | COC(=O)c1[nH]c2ccc(F)cc2c1/C=C1\SC(=S)N(c2ccc(O)cc2)C1=O [Compound 10, (Z)-methyl 5-fluoro-3-((3-(4-hydroxyphenyl)-4-oxo-2-thioxothiazolidin-5-ylidene)methyl)-1H-indole-2-carboxylate] | 60 ± 6 µg/mL (≈ 140 µM) | 30 ± 10 µg/mL (≈ 70 µM) | 60 ± 6 µg/mL (≈ 140 µM) | 30 ± 10 µg/mL (≈ 70 µM) | 60 ± 6 µg/mL (≈ 140 µM) | 60 ± 6 µg/mL (≈ 140 µM) | 30 ± 10 µg/mL (≈ 70 µM) | 60 ± 6 µg/mL (≈ 140 µM) | 45 ± 3 µg/mL (≈ 105 µM) | 60 ± 6 µg/mL (≈ 140 µM) | 30 ± 10 µg/mL (≈ 70 µM) | 60 ± 6 µg/mL (≈ 140 µM) | 60 ± 6 µg/mL (≈ 140 µM) | 30 ± 10 µg/mL (≈ 70 µM) | 8 ± 0.6 µg/mL (≈ 18.7 µM) | 4 µg/mL (≈ 9.34 µM) | 120 ± 40 µg/mL (≈ 280 µM) | 60 ± 6 µg/mL (≈ 140 µM) | 15 ± 3 µg/mL (≈ 35 µM) | 8 ± 0.6 µg/mL (≈ 18.7 µM) | MIC [3]: 30 ± 10 µg/mL (≈ 70 µM); MIC [7]: 45 ± 3 µg/mL (≈ 105 µM); MIC [9]: 4 ± 1 µg/mL (≈ 9.34 µM); MFC [12]: 15 ± 3 µg/mL (≈ 35 µM); MIC [12]: 8 ± 0.6 µg/mL (≈ 18.7 µM); MIC [13]: 8 ± 0.6 µg/mL (≈ 18.7 µM); MFC ([13]; Penicillium ochrochloron): 15 ± 3 µg/mL (≈ 35 µM); MIC [13, 20]: 8 µg/mL (≈ 18.7 µM); MFC [14]: 15 ± 3 µg/mL (≈ 35 µM); MIC [14]: 8 ± 0.6 µg/mL (≈ 18.7 µM); MIC [15]: 4 ± 1 µg/mL (≈ 9.34 µM); MFC ([15]; Trichoderma viride, IAM5061): 8 ± 0.6 µg/mL (≈ 18.7 µM); MIC [15, 21]: 4 µg/mL (≈ 9.34 µM); MFC [16]: 30 ± 10 µg/mL (≈ 70 µM); MIC [16]: 15 ± 3 µg/mL (≈ 35 µM); melting point: 267 to 268 °C
2 | COC(=O)c1[nH]c2ccccc2c1/C=C1\SC(=S)N(C(C(=O)O)C(C)C)C1=O (centres unmarked) [Compound 12, (Z)-2-(5-((2-(methoxycarbonyl)-1H-indol-3-yl)methylene)-4-oxo-2-thioxothiazolidin-3-yl)-3-methylbutanoic acid] | 60 ± 6 µg/mL (≈ 143 µM) | 30 ± 10 µg/mL (≈ 71.7 µM) | 60 ± 6 µg/mL (≈ 143 µM) | 15 µg/mL (≈ 35.8 µM) | 30 ± 10 µg/mL (≈ 71.7 µM) | 30 ± 10 µg/mL (≈ 71.7 µM) | 15 µg/mL (≈ 35.8 µM) | 60 ± 6 µg/mL (≈ 143 µM) | 30 ± 10 µg/mL (≈ 71.7 µM) | 30 ± 10 µg/mL (≈ 71.7 µM) | 15 ± 9 µg/mL (≈ 35.8 µM) | 8 ± 9 µg/mL (≈ 19.1 µM) | 60 ± 6 µg/mL (≈ 143 µM) | 30 ± 10 µg/mL (≈ 71.7 µM) | 15 ± 3 µg/mL (≈ 35.8 µM) | 8 ± 0.6 µg/mL (≈ 19.1 µM) | 120 ± 40 µg/mL (≈ 287 µM) | 60 ± 6 µg/mL (≈ 143 µM) | 30 ± 10 µg/mL (≈ 71.7 µM) | 22 ± 5 µg/mL (≈ 52.6 µM) | MIC [4]: 15 ± 1 µg/mL (≈ 35.8 µM); MFC [12]: 15 ± 3 µg/mL (≈ 35.8 µM); MIC [12]: 8 ± 0.6 µg/mL (≈ 19.1 µM); MFC ([13]; Penicillium ochrochloron): 30 ± 10 µg/mL (≈ 71.7 µM); MIC [13, 20]: 15 ± 3 µg/mL (≈ 35.8 µM); MFC [14]: 30 ± 10 µg/mL (≈ 71.7 µM); MIC [14]: 15 ± 3 µg/mL (≈ 35.8 µM); MIC [15]: 8 ± 0.6 µg/mL (≈ 19.1 µM); MFC ([15]; Trichoderma viride, IAM5061): 15 ± 3 µg/mL (≈ 35.8 µM); MIC [15, 21]: 8 µg/mL (≈ 19.1 µM); MFC [16]: 60 ± 6 µg/mL (≈ 143 µM); MIC [16]: 30 ± 10 µg/mL (≈ 71.7 µM); melting point: 256 to 258 °C
3 | COC(=O)c1[nH]c2ccc(F)cc2c1/C=C1\SC(=S)N(C)C1=O [Compound 15, (Z)-methyl 5-fluoro-3-((3-methyl-4-oxo-2-thioxothiazolidin-5-ylidene)methyl)-1H-indole-2-carboxylate] | 60 ± 6 µg/mL (≈ 171 µM) | 30 ± 10 µg/mL (≈ 85.6 µM) | 60 ± 6 µg/mL (≈ 171 µM) | 30 ± 10 µg/mL (≈ 85.6 µM) | 60 ± 6 µg/mL (≈ 171 µM) | 60 ± 6 µg/mL (≈ 171 µM) | 45 ± 3 µg/mL (≈ 128 µM) | 60 ± 6 µg/mL (≈ 171 µM) | 45 ± 3 µg/mL (≈ 128 µM) | 60 ± 6 µg/mL (≈ 171 µM) | 30 ± 10 µg/mL (≈ 85.6 µM) | 60 ± 6 µg/mL (≈ 171 µM) | 30 ± 10 µg/mL (≈ 85.6 µM) | 22 ± 5 µg/mL (≈ 62.8 µM) | 15 ± 3 µg/mL (≈ 42.8 µM) | 8 ± 0.6 µg/mL (≈ 22.8 µM) | 30 ± 10 µg/mL (≈ 85.6 µM) | 15 ± 3 µg/mL (≈ 42.8 µM) | 15 ± 3 µg/mL (≈ 42.8 µM) | 8 ± 0.6 µg/mL (≈ 22.8 µM) | MIC [3]: 45 ± 3 µg/mL (≈ 128 µM); MIC [7]: 45 ± 3 µg/mL (≈ 128 µM); MFC [12]: 15 ± 3 µg/mL (≈ 42.8 µM); MIC [12]: 8 ± 0.6 µg/mL (≈ 22.8 µM); MIC [13]: 8 ± 0.6 µg/mL (≈ 22.8 µM); MFC ([13]; Penicillium ochrochloron): 15 ± 3 µg/mL (≈ 42.8 µM); MIC [13, 20]: 8 µg/mL (≈ 22.8 µM); MFC [14]: 15 ± 3 µg/mL (≈ 42.8 µM); MIC [14]: 8 ± 0.6 µg/mL (≈ 22.8 µM); MIC [15]: 8 ± 0.6 µg/mL (≈ 22.8 µM); MFC ([15]; Trichoderma viride, IAM5061): 15 ± 3 µg/mL (≈ 42.8 µM); MIC [15, 21]: 8 µg/mL (≈ 22.8 µM); MFC [16]: 15 ± 3 µg/mL (≈ 42.8 µM); MIC [16]: 8 ± 0.6 µg/mL (≈ 22.8 µM); melting point: 234 to 244 °C
